Experimental findings from patent US20050256056A1, “Peptide inhibitors of HIV” (priority 2003, published 2005) are described below.

One test concerns HIV-1 NL4-3. Put plainly: focal infectivity assay, inhibition of HIV-1 NL4-3 in HeLa H1-JC.37 cells. Format: cell-based. From the text:
The term “EC50” refers to the concentration of peptide that inhibits 50% viral activity, including infective activity, as measured in an in vitro assay, including a focal infectivity assay (described in Pincus, et al. Biotechniques 10:336 (1991)).
Peptides and peptide analogs that bind to an HIV target protein of interest are then screened for their effectiveness in inhibiting HIV activity in vitro. One assay for evaluating HIV inhibiting activity in vitro is a focal infectivity assay, described by Pincus, et al. Biotechniques 10:336 (1991). Preferred peptides and peptide analogs will inhibit HIV activity in vitro at a concentration of about 50 μM or less, more preferably at about 40 μM, 30 μM, 25 μM or 20 μM or less, and more preferably at about 15 μM, 10 μM or 5 μM or less.
After re-synthesis of 16 of these as soluble peptides, 13 were tested for ability to inhibit the NL4-3 clone of HIV-1 (the other 3 were insoluble). For these studies a focal infectivity assay was carried out using HeLa H1-JC.37 cells. H1-JC.37 cells are HeLa cells that naturally express the CXCR4 receptor and that have been engineered to express CD4 and CCR5 receptors (Platt, et al. J. Virol. 72:2855 (1998)). Dose-response curves were performed in triplicate experiments with 6 determinations per drug concentration in each experiment. None of these peptides inhibited growth of HeLa H1-JC.37 cells at the concentrations tested (up to 100 μM). […] The purified peak fraction was re-tested for anti-HIV activity, and the EC50 was determined to be 8 μM. The identity of the biologically active peptide has been confirmed with mass spectrometry.

In the next test the target is T1, ogp140 (Human immunodeficiency virus type 1 group M subtype B, UniProt P19550).
T1 construct: ogp140, which contains gp120 and the ectodomain of the gp41 subunit in a trimeric form; purchased Chiron Corporation (gift from Dr. Indresh Srivastava, not a purchase)
T1 sequence (P19550 32-675): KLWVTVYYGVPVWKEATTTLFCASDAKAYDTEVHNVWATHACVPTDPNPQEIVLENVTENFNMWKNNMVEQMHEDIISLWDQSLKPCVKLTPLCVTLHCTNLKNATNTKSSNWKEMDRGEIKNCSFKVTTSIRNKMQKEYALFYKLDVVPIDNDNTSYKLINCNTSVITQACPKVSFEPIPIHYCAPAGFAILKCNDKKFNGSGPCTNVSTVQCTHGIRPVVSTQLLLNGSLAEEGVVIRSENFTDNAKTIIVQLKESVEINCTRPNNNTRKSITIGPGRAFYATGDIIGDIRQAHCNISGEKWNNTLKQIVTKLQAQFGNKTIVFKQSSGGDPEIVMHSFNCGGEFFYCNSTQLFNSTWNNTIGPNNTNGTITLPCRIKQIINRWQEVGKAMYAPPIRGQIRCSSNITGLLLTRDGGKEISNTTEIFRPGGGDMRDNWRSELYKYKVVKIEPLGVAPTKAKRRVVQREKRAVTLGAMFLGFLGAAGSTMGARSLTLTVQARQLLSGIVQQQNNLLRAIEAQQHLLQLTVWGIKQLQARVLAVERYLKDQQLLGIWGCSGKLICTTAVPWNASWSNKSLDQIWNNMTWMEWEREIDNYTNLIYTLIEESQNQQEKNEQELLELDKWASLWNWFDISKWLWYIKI
Type of test: binding, HIV-1 SF162 strain. The conditions noted are these: Table 2 peptides re-synthesized on beads.

Like-named read-outs stand apart in the source and are kept apart here. Non-standard residues stand in square brackets, D forms with d. Residues, ends and D or L forms follow the SMILES beside them.

Protocol for ogp140: The optimal concentrations of glycoproteins for our screening assays were determined to be 0.25-1.25 μg/ml for ogp140 and 1-5 μg/ml for gp120. In order to visualize beads with bound ogp140 or gp120, these proteins were biotinylated so that an enzyme-linked colorimetric assay could be used to identify positive beads. Biotinylation was performed with Sulpho-NHS-biotin at a 5:1 molar ratio of biotin to protein. Reactions were carried out for both 3 minutes and 10 minutes to obtain different levels of biotinylation and were stopped with 2 M Tris-HCl, pH 7.4. The proteins were dialyzed for 4-5 hr to remove excess biotin.
The peptides of Table 2 were re-synthesized on beads.
These secondary libraries were screened with ogp140 under higher stringency (lower protein concentrations of both ogp140 and streptavidin-alkaline phosphatase (ST-AP)). The concentrations of ogp140 used in this screen were 0.06 mg/mL and 0.3 mg/mL. These concentrations are 4-fold lower than those used in the original screen (0.25 mg/mL and 1.25 mg/mL). The amount of ST-AP was lowered from 1:15,000 in the original screen to 1:25,000 in this screen. Approximately 75,000 beads from each library were screened.
From the 34 positive beads of the 8-mer library, the 12 darkest beads were selected for sequence analyses and the results are in Table 3.

In the test on HIV-1 NL4-3 (NL4-3), `CC[C@@H](C)[C@@H](NC(=O)[C@@H](Cc1c[nH]c2ccccc12)NC(=O)[C@@H]1CCCN1C(=O)[C@@H](Cc1ccc(O)cc1)NC(=O)[C@@H](CO)NC(=O)[C@H]1CCCN1C(=O)[C@@H](C)N)C(=O)N[C@H](CCCNC(=N)N)C(=O)O` [compound 1] (H-[dA][dP][dS][dY]P[dW][dI][dR]-OH; N-terminus and C-terminus assumed) had an EC50 above 100 µM.

Consider `CC[C@@H](C)[C@@H](NC(=O)[C@@H](Cc1c[nH]c2ccccc12)NC(=O)[C@@H]1CCCN1C(=O)[C@@H](Cc1ccc(O)cc1)NC(=O)[C@@H](CO)NC(=O)[C@H]1CCCN1C(=O)[C@H](N)CCSC)C(=O)N[C@H](CCCNC(=N)N)C(=O)O` [compound 16, mpsyPwir] (H-[dM][dP][dS][dY]P[dW][dI][dR]-OH; N-terminus and C-terminus assumed), for which the EC50 turned out to be 8 µM in the test on HIV-1 NL4-3 (HPLC-purified peak fraction re-tested, read-out: EC50 of purified peak fraction, anti-HIV activity) and 17 µM in the test on HIV-1 NL4-3 (NL4-3). Also, the “staining intensity of peptide beads in binding assays with ogp140” value on ogp140 is “stain more intensively”.

The compound `CSCC[C@@H](NC(=O)[C@H](N)Cc1c[nH]cn1)C(=O)N[C@H](CC(N)=O)C(=O)N1CCC[C@H]1C(=O)N[C@H](Cc1ccccc1)C(=O)N[C@H](Cc1ccc(O)cc1)C(=O)N[C@H](Cc1ccc(O)cc1)C(=O)N[C@H](CCC(N)=O)C(=O)O` [compound 13] (H-[dH][dM][dN]P[dF][dY][dY][dQ]-OH; N-terminus and C-terminus assumed) had a concentration giving a half-maximal response (EC50) with HIV-1 NL4-3 (NL4-3) above 100 µM.

With `CC(C)[C@@H](NC(=O)[C@@H](Cc1c[nH]cn1)NC(=O)[C@@H](CC(=O)O)NC(=O)[C@@H](Cc1ccccc1)NC(=O)[C@@H]1CCCN1C(=O)[C@@H](CCC(N)=O)NC(=O)[C@@H](Cc1ccc(O)cc1)NC(=O)[C@H](N)Cc1ccc(O)cc1)C(=O)O` [compound 14] (H-[dY][dY][dQ]P[dF][dD][dH][dV]-OH; N-terminus and C-terminus assumed), in the test with HIV-1 NL4-3 (NL4-3), a half-maximal effect (EC50) was put at 55 µM.
